Reference: ChEMBL document CHEMBL1137334 (J Med Chem, 2006)
≈ marks a conversion by molar mass, not a printed value. Each block holds one molecule with its values, some of them ahead of it.

Experiments:
[1] = AUC (0-24h) in mouse at 20 mg/kg, po; type: ADME, organism-based; parameters: time < 24 hr, dose 20 mg/kg, route oral; conditions: plasma
A549 = assay: Inhibition of A549 cell migration by microdroplet migration assay; type: functional, cell-based; conditions: Homo sapiens
[2] = target: Proto-oncogene tyrosine-protein kinase Src (Homo sapiens, UniProt P12931)
Description: Inhibition of human c-Src in NIH3T3 cells

[3] = target: Vascular endothelial growth factor receptor 2 (Homo sapiens, UniProt P35968); assay: Inhibition of KDR
[4] = Dissociation constant, pKa of the basic side chain of compound; type: physicochemical
[5] = Lipophilicity, log D at pH 7.4; type: physicochemical; conditions: buffer
[6] = Aqueous solubility at pH 7.4; type: physicochemical
[7] = Percent of unbound ligand in rat plasma; type: ADME, organism-based
[8] = Bioavailability in female rat at 20 mg/kg, po and 2 mg/kg, iv; type: ADME, organism-based; conditions: in vivo
[9] = Clearance in female rat at 20 mg/kg, po and 2 mg/kg, iv; type: ADME, organism-based; conditions: in vivo
Canis familiaris [10] = organism: Canis familiaris; assay: (§1) Volume of distribution in male dog; type: ADME, organism-based, Canis lupus familiaris; conditions: in vivo
Canis familiaris [11] = organism: Canis familiaris; assay: (§2) Half life in male dog; type: ADME, organism-based, Canis lupus familiaris; conditions: in vivo
[12] = Bioavailability in male dog; type: ADME, organism-based, Canis lupus familiaris; conditions: in vivo
[13] = Volume of distribution in female rat at 20 mg/kg, po and 2 mg/kg, iv; type: ADME, organism-based; conditions: in vivo, read-out: Vdss
[14] = Inhibition of Chk; parameters: species or system Homo sapiens
[15] = Percent of unbound ligand in dog plasma; type: ADME, organism-based, Canis lupus familiaris
[16] = target: c-Jun N-terminal kinase, JNK (Homo sapiens, UniProt P45983+P53779+P45984); assay: Inhibition of JNK; type: protein assay
[17] = target: Tyrosine-protein kinase CSK (Homo sapiens, UniProt P41240); assay: Inhibition of recombinant CSK by ELISA
NIH3T3 = assay: Antiproliferative activity against NIH 3T3 cells xenografted in athymic rat measured as inhibition of tumor volume at 10 mg/kg/day after 18 days; type: functional; conditions: NIH3T3, 432 h
[18] = target: Fibroblast growth factor receptor 1 (Homo sapiens, UniProt P11362); assay: Inhibition of recombinant FGFR1 by ELISA
[19] = target: Cyclin-dependent kinase 2 (Homo sapiens, UniProt P24941); assay: Inhibition of CDK2 by SPA
[20] = target: cAMP-dependent protein kinase (PKA) (Homo sapiens, UniProt P22694+P17612+P22612); assay: Inhibition of PKA; type: protein assay
[21] = target: Vascular endothelial growth factor receptor 3 (Homo sapiens, UniProt P35916); assay: Inhibition of FLT4 by ELISA
[22] = Permeability from apical to basolateral side of NIH 3T3 cell; type: ADME, cell-based, NIH3T3; conditions: mouse, not told; read-out: permeability
Aurora kinase B = Aurora kinase B (Homo sapiens, UniProt Q96GD4); assay: Inhibition of recombinant Aurora B by ELISA
[23] = Volume of distribution in rat at 20 mg/kg, po and 2 mg/kg, iv; type: ADME, organism-based; conditions: in vivo, read-out: Vdss
[24] = Bioavailability in rat at 20 mg/kg, po and 2 mg/kg, iv; type: ADME, organism-based; conditions: in vivo
[25] = target: Glycogen synthase kinase-3 beta (Homo sapiens, UniProt P49841); assay: Inhibition of GSK3-beta
[26] = as §1; type: ADME, organism-based, Canis lupus familiaris; conditions: male, in vivo, read-out: Vdss
[27] = Clearance in rat at 20 mg/kg, po and 2 mg/kg, iv; type: ADME, organism-based; conditions: in vivo
[28] = as §2; type: ADME, organism-based, Canis lupus familiaris; conditions: male, in vivo
[29] = Half life in rat at 20 mg/kg, po and 2 mg/kg, iv; type: ADME, organism-based; conditions: in vivo
[30] = Clearance in male dog; type: ADME, organism-based, Canis lupus familiaris; conditions: in vivo
[31] = target: Protein kinase C alpha type (Homo sapiens, UniProt P17252); assay: Inhibition of PKCalpha
[32] = target: 3-phosphoinositide-dependent protein kinase 1 (Homo sapiens, UniProt O15530); assay: Inhibition of PDK
[33] = Inhibition of PI3K; parameters: species or system Homo sapiens
[34] = target: Tyrosine-protein kinase Yes (Homo sapiens, UniProt P07947); assay: Inhibition of recombinant C-YES by ELISA
[35] = target: Vascular endothelial growth factor receptor 1 (Homo sapiens, UniProt P17948); assay: Inhibition of recombinant FLT1 by ELISA
Vascular endothelial growth factor receptor 1, sequence (P17948 whole entry): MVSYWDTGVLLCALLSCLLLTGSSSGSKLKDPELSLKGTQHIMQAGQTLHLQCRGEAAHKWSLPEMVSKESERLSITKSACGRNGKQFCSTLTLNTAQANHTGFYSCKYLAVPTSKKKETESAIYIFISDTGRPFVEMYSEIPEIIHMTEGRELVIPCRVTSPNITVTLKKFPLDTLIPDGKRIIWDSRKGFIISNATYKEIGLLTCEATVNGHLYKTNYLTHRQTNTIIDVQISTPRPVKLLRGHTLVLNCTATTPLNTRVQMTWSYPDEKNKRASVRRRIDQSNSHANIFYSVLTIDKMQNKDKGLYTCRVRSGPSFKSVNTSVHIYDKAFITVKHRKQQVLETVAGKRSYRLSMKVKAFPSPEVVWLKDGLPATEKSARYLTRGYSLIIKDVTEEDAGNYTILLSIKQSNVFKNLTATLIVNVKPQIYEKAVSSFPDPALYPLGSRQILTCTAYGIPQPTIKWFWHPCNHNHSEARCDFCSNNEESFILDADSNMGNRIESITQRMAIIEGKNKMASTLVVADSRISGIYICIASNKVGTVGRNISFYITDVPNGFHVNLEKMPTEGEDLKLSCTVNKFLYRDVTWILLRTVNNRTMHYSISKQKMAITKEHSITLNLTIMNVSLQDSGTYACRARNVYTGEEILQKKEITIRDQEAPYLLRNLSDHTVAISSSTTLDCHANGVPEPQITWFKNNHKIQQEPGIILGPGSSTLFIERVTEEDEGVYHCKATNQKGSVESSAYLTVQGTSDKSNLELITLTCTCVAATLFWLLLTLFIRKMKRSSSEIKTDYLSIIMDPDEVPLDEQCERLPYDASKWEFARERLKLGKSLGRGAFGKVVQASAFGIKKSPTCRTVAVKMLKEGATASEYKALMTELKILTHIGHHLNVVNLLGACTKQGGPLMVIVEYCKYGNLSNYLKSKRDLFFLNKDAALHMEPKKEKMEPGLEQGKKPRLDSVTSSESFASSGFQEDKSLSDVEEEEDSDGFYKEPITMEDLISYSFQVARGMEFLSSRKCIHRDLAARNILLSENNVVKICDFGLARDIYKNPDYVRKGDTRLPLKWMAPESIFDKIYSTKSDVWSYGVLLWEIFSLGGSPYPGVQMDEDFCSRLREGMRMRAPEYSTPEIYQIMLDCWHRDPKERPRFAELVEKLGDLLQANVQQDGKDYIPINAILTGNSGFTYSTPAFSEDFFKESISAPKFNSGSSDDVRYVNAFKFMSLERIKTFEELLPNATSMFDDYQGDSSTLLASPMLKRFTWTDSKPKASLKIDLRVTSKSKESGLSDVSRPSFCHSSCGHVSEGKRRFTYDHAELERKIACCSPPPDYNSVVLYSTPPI

Vascular endothelial growth factor receptor 2, sequence (P35968 whole entry): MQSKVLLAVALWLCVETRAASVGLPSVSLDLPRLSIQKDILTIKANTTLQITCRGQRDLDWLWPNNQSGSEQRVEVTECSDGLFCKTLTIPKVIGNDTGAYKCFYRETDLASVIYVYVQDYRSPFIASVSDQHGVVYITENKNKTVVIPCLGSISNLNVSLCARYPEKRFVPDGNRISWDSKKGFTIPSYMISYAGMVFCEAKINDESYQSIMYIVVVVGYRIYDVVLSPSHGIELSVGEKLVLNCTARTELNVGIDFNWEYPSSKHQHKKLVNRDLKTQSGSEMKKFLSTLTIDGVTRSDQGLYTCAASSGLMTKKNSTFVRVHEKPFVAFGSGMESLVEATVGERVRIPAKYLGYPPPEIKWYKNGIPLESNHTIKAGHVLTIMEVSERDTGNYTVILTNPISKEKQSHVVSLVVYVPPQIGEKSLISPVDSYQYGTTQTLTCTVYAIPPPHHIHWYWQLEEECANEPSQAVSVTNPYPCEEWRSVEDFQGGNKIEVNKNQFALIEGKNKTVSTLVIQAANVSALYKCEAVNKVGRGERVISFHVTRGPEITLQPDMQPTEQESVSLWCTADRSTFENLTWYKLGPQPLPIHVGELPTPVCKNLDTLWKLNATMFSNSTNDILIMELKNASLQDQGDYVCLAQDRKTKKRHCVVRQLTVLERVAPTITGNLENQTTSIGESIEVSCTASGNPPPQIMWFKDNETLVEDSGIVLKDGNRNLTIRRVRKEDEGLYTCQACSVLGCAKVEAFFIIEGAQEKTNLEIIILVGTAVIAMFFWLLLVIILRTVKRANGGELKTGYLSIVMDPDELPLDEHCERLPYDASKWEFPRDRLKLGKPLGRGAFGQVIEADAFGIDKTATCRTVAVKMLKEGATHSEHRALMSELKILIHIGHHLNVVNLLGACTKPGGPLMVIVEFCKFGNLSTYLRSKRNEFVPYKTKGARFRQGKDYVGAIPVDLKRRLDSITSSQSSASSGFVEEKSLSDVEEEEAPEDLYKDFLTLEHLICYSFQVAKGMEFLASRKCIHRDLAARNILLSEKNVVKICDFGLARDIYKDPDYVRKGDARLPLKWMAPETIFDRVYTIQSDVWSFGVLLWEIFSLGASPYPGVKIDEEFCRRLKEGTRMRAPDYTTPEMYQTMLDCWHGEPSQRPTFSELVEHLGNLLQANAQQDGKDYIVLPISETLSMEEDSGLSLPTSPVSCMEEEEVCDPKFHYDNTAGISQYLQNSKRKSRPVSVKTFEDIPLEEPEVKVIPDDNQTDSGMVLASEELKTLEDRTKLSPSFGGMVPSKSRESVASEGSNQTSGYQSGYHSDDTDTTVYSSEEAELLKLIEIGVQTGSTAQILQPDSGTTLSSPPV
Proto-oncogene tyrosine-protein kinase Src, sequence (P12931 2-536 limits assumed): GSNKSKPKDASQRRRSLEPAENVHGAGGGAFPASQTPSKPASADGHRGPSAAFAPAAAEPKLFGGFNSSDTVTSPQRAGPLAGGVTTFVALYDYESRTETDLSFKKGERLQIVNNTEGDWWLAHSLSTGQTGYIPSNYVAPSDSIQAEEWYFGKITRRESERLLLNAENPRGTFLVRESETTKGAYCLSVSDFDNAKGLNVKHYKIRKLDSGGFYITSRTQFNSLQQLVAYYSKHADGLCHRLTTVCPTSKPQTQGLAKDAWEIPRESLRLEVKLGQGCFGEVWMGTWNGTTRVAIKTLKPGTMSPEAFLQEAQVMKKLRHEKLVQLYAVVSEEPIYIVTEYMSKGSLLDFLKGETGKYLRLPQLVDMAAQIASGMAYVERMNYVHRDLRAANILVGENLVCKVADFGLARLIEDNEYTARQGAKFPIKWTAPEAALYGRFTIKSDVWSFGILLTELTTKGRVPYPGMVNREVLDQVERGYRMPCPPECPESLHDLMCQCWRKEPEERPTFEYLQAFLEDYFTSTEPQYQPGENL
Tyrosine-protein kinase Yes, sequence (P07947 whole entry): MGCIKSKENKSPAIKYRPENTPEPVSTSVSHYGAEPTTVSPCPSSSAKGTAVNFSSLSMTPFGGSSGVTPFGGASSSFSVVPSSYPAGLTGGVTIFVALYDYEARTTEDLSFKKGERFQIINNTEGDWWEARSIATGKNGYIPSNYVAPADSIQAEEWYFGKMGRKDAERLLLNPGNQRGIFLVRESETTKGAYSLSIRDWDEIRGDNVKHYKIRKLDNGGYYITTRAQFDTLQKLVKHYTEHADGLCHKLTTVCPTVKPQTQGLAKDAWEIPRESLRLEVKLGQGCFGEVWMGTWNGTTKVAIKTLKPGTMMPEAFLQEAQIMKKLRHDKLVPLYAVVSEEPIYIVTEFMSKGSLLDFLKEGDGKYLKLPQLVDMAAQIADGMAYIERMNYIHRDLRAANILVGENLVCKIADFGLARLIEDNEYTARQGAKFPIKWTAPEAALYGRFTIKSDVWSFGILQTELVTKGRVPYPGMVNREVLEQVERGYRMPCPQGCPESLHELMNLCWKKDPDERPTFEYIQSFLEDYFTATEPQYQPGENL
Fibroblast growth factor receptor 1, sequence (P11362 whole entry): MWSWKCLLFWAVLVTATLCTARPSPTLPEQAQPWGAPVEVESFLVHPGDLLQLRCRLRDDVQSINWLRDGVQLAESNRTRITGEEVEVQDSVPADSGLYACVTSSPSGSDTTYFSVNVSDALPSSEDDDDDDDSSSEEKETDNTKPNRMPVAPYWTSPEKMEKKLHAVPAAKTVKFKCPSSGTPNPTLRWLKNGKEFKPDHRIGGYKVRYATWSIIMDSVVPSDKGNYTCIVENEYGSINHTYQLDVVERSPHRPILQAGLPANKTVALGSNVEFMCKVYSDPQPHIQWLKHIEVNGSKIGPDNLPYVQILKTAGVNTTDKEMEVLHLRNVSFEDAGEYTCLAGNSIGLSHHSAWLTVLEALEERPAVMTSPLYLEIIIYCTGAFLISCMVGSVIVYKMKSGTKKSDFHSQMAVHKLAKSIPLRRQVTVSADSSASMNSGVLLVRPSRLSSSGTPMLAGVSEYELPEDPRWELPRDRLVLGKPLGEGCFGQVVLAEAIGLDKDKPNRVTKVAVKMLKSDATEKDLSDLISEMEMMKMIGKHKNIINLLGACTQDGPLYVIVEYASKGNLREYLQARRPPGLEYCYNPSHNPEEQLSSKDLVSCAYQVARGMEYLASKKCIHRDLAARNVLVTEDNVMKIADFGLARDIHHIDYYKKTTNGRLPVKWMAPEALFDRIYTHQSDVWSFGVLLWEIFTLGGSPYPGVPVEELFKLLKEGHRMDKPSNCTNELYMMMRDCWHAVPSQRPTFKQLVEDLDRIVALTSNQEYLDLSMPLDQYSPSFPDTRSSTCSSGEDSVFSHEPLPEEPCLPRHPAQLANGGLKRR
Aurora kinase B, sequence (Q96GD4 whole entry): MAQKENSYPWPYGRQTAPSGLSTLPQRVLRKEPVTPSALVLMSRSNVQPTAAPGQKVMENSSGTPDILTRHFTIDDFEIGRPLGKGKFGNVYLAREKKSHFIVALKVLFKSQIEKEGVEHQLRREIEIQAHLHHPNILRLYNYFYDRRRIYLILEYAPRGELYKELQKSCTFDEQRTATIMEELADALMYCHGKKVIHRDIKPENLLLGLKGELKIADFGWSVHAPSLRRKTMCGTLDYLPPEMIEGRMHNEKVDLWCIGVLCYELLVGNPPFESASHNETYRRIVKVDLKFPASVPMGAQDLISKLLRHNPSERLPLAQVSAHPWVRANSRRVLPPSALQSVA

AUC(0-t) at 24 h [1]: 38000 ng·h/mL
SMILES: COc1cc2c(Nc3c(Cl)ccc4c3OCO4)ncnc2cc1OCC1CCN(C)CC1

IC50 (A549): 200 nM
AUC(0-t) at 24 h [1]: 600 ng·h/mL
IC50 [3]: > 10000 nM
IC50 [2]: 7 nM
SMILES: CC(C)COc1cc(OC2CCN(C)CC2)c2c(Nc3c(Cl)ccc4c3OCO4)ncnc2c1

pKa [4]: 8.2
IC50 (A549): 150 nM
AUC(0-t) at 24 h [1]: 50 ng·h/mL
IC50 [3]: 21500 nM
IC50 [2]: 10 nM
logD [5]: 2.9
solubility [6]: > 1000 µM
fraction unbound [7]: 0.25
SMILES: COc1cc(OC2CCN(C)CC2)c2c(Nc3c(Cl)ccc4c3OCO4)ncnc2c1

IC50 [2]: 65 nM
SMILES: CN1CCN(CCOc2cc(OC3CCOCC3)c3c(Nc4c(Cl)ccc5c4OCCO5)ncnc3c2)CC1

IC50 (A549): 300 nM
AUC(0-t) at 24 h [1]: 31000 ng·h/mL
bioavailability [8]: 93%
clearance [9]: 132 mL/min/kg
IC50 [3]: 2000 nM
IC50 [2]: 6 nM
Vdss (Canis familiaris [10]): 38 L/kg
T1/2 (Canis familiaris [11]): 22 h
bioavailability [12]: 57%
Vd [13]: 23.4 L/kg
SMILES: CN1CCC(COc2cc(OC3CCOCC3)c3c(Nc4c(Cl)ccc5c4OCO5)ncnc3c2)CC1

IC50 [2]: 15 nM
SMILES: COc1cc(OCCCN2CCCC2)cc2ncnc(Nc3c(Cl)ccc4c3OCO4)c12

IC50 (A549): 200 nM
IC50 [3]: 1000 nM
IC50 [2]: < 4 nM
SMILES: CN1CCN(CCCOc2cc(OC3CCOCC3)c3c(Nc4c(Cl)ccc5c4OCO5)ncnc3c2)CC1

pKa [4]: 9.5
IC50 [14]: > 10000 nM
fraction unbound [15]: 0.17
IC50 [16]: > 10000 nM
IC50 [17]: 270 nM
IC50 (A549): 150 nM
AUC(0-t) at 24 h [1]: 13000 ng·h/mL
IC50 [18]: 37000 nM
IC50 [19]: > 10000 nM
IC50 [20]: > 10000 nM
IC50 [21]: > 10000 nM
Papp A→B [22]: > 1 ×10⁻⁶ cm/s
IC50 (Aurora kinase B): 8900 nM
Vd [23]: 15 L/kg
bioavailability [24]: 60%
IC50 [3]: 2500 nM
IC50 [25]: > 10000 nM
IC50 [2]: < 4 nM
logD [5]: 2.3
Vd [26]: 38 L/kg
clearance [27]: 48.3 mL/min/kg
half-life [28]: 29 h
half-life [29]: 3.5 h
clearance [30]: 15 mL/min/kg
solubility [6]: 1000 µM (≈ 527 µg/mL)
IC50 [31]: > 10000 nM
IC50 [32]: > 10000 nM
IC50 [33]: > 10000 nM
fraction unbound [7]: 0.16
bioavailability [12]: 85%
IC50 [34]: 3 nM
IC50 [35]: > 33000 nM
SMILES: Clc1ccc2c(c1Nc1ncnc3cc(OCCCN4CCCC4)cc(OC4CCOCC4)c13)OCO2
inhibition in vivo at 10 mg/kg/day (NIH3T3): 90%

IC50 (A549): 90 nM
IC50 [3]: > 20000 nM
IC50 [2]: 4 nM
SMILES: CN1CCC(Oc2cc(OCCF)cc3ncnc(Nc4c(Cl)ccc5c4OCO5)c23)CC1

The next lines start with the molecule.

SMILES: COc1ccc(Cl)c(Nc2ncnc3cc(OCCCN4CCOCC4)cc(OC4CCOCC4)c23)c1
IC50 (A549): 80 nM
IC50 [2]: 20 nM

SMILES: CC(C)Oc1cc(OCCCN2CCCC2)cc2ncnc(Nc3c(Cl)ccc4c3OCO4)c12
IC50 (A549): 150 nM
IC50 [3]: 1200 nM
IC50 [2]: < 4 nM

SMILES: c1cc(Nc2ncnc3cc(OCCCN4CCCC4)cc(OC4CCOCC4)c23)c2c(c1)OCO2
IC50 [3]: 100 nM
IC50 [2]: 40 nM

SMILES: Clc1ccc2c(c1Nc1ncnc3cc(OCCN4CCCC4)cc(OC4CCOCC4)c13)OCCO2
IC50 [2]: 110 nM

SMILES: Clc1ccc2c(c1Nc1ncnc3cccc(Oc4ccncc4)c13)OCO2
IC50 (A549): 500 nM
IC50 [3]: > 33000 nM
IC50 [2]: 55 nM

SMILES: COc1ccc(Cl)c(Nc2ncnc3cc(OC)c(OC)cc23)c1
IC50 [2]: 250 nM

SMILES: COc1ccc(Cl)c(Nc2ncnc3cc(OC)cc(OC)c23)c1
IC50 [2]: 3700 nM

SMILES: COc1cc(Oc2ccncc2)c2c(Nc3c(Cl)ccc4c3OCO4)ncnc2c1
IC50 (A549): 150 nM
AUC(0-t) at 24 h [1]: 100 ng·h/mL
IC50 [3]: 21500 nM
IC50 [2]: 9.5 nM

SMILES: Clc1ccc2c(c1Nc1ncnc3cc(OCCc4ccncc4)cc(OC4CCOCC4)c13)OCO2
pKa [4]: 6.4
IC50 (A549): 70 nM
AUC(0-t) at 24 h [1]: 6000 ng·h/mL
IC50 [3]: > 5000 nM
IC50 [2]: 3 nM
logD [5]: > 3.1
solubility [6]: 1.5 µM (≈ 0.781 µg/mL)
fraction unbound [7]: 0.017

SMILES: COc1ccc(Cl)c(Nc2ncnc3cc(OCCCN4CCOCC4)cc(OC4CCCCC4)c23)c1
IC50 (A549): 2500 nM
IC50 [3]: 5500 nM
IC50 [2]: 20 nM

SMILES: COc1ccc(Cl)c(Nc2ncnc3ccc(OC)c(OC4CCN(C)CC4)c23)c1
IC50 [2]: 540 nM
